Measured values published in US6562843B1, “Substituted 3-pyridyl-4-arylpyrroles, and related therapeutic and prophylactic methods” (Ortho-McNeil Pharmaceutical, Inc., priority 1999, dated 2003).

Assays:
[1] = target: T1, purified recombinant p38 (6×His-p38 expressed in E.coli) (Homo sapiens, UniProt Q16539); experiment: p38 Inhibition In-Vitro Enzyme Assay; type: biochemical; details: myelin basic protein substrate, 33P-ATP; for inhibition at 10 µM: read-out: % p38 inhib @ 10 μM
T1 construct: 6xHis; made in house; host or cells: E. coli
T1 sequence (Q16539 whole entry): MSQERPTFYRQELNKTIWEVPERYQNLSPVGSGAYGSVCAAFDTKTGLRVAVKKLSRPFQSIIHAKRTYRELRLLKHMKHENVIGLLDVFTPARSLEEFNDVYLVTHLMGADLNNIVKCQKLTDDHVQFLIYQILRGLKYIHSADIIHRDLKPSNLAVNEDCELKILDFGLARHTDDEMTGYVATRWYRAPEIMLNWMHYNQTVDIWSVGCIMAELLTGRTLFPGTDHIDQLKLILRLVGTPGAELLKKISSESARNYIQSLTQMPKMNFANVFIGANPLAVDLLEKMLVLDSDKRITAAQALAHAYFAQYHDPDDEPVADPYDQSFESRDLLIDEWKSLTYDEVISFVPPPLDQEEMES
Procedure: A. p38 Inhibition In-Vitro Enzyme Assay
A solution (38 μL) of purified recombinant p38 (6×His-p38 expressed in E.coli), myelin basic protein substrate (determined empirically), and a buffer of pH 7.5 (Hepes:25 mM, MgCl2:10 mM, MnCl2:10 mM) were added to 92 wells of a 96-well round bottom polypropylene plate. The amount of enzyme was determined empirically based on the linear range of the assay and the acceptable signal to noise ratio. The remaining wells were used for control “CTRL”) and background (“BKG”). The CTRL was prepared with the enzyme, substrate buffer and 2% DMSO, and the BKG was prepared with substrate buffer and 2% DMSO.
A solution (12 μL) of the test compound in DMSO was added to the testing wells. […] The ATP/^33P-ATP solution (10 μL containing 50 μM unlabeled ATP and 1 μCi ^33P-ATP) was added to all wells and the completed plates were mixed and incubated at 30° C. for 30 min. Ice-cold 50% TCA/10 mM sodium phosphate (60 μL) was added to each well and the plates were kept on ice for 15 min. The contents of each well were transferred to the wells of a 96-well filterplate (Millipore, MultiScreen-DP) and the filterplate was placed on a vacuum manifold fitted with a waste collection tray. The wells were washed five times with 10% TCA/10 mM sodium phosphate (200 μL) under vacuum. MicroScint-20 scintillant was added, and the plates were sealed using Topseal-S sheets and counted in a Packard TopCount scintillation counter using a ^33P liquid program with color quench correction, where the output is in color quench-corrected cpm. The % inhibition of each test compound as shown in Table 2 was calculated by the following formula: % inhibition=[1−(sample−BKG)/(CTRL−BKG)]×100.
[…] In addition, the IC50 was calculated for some compounds using the Deltagraph 4-parameter curve-fitting program.

TNF-α production = experiment: In-Vitro Whole Cell Assay for TNF-α Inhibition (LPS-stimulated PBMC, ELISA); type: cell-based; details: LPS overnight, TNF-α by ELISA
Procedure: B. In-Vitro Whole Cell Assay for TNF-α Inhibition
Freshly obtained venous blood was anticoagulated with heparin, diluted with an equal volume of phosphate buffered saline (“PBS”) and placed in a sterile tube or other container. Aliquots (30 mL) of this mixture were transferred to centrifuge tubes which were underlaid with Ficoll-Hypaque (15 mL). The prepared tubes were centrifuged at 400×g, without braking, for 30 min at room temperature. Approximately ½ to ⅔ of the platelet layer above the mononuclear cell band was removed with a pipette. The majority of the mononuclear cell layer was carefully removed using a pipette and these PBMC's were diluted with PBS and spun at 600×g for 15 min. The resulting PBMC's were washed with another portion of PBS and spun at 400×g for 10 min at room temperature. The recovered pellets were diluted in low endotoxin RPMI/1% FCS culture medium, and gave a cell concentration of 0.5-2.0×10^6 PMBC/mL. A small volume of the suspension was removed for counting on a hemocytometer and the remaining preparation was centrifuged at 200×g for 15 min at room temperature. The recovered pelleted PMBC's were resuspended in RPMI/1% FCS to a concentration of 1.67×10^6/mL.
To run the assay, the PBMC suspension (180 μL) was transferred to duplicate wells of a 96-well flat-bottom microtiter plate and incubated for 1 h at 37° C. A solution of test compound (10 μL: prepared at 20× the desired final concentration) was added to each well and the plate was incubated for 1 h at 37° C. A solution (10 μL) of LPS in RPMI/1% FCS (200 ng/mL) was added and the wells were incubated overnight at 37° C. The supernate (100 μL) was removed from each well and diluted with RPMI/1% FCS (400 μL). The samples were analyzed for TNF-α using a commercial ELISA kit (Genzyme).
The compounds were tested for their ability to inhibit TNF-α production. The IC50 nM results are listed for the indicated compounds.

[2] = tested on: LPS-induced TNF-α production; experiment: In Vivo Rodent Assay for Inhibition of TNF-α Production (mice); design: species or system Mice (BALB/cJ females); details: oral dosing, LPS 1 mg/kg i.p., serum TNF-α; for inhibition in vivo at 10 mg/kg / inhibition in vivo at 25 mg/kg: Mus musculus, 1 h
Procedure: C. In Vivo Rodent Assay for Inhibition of TNF-α Production
Mice (BALB/cJ females, Jackson Laboratories) or rats (Lewis males, Charles River) were fasted for 30 min prior to oral dosing with 5-10 mL/kg of test compound at 5-50 mg/kg. Thirty minutes after dosing, the animals were injected intraperitoneally with LPS at 1 mg/kg and returned to their cages for 1 h. Animals were anesthetized by CO2, exsanguinated by cardiac puncture and whole blood collected (0.1-0.7 mL). The blood was allowed to clot and serum was transferred to a centrifuge tube. This sample was centrifuged, and serum was collected, aliquoted and frozen at −80° C. Samples were tested by commercial ELISA's for TNF-α (Endogen for mouse TNF-α and Biosource for rat TNF-α).

Row | Compound | inhibition at 10 µM [1] | IC50 (TNF-α production) | inhibition in vivo at 10 mg/kg ([2]; 10 mg/kg) | % p38 inhib @ 10 μM [1] | TNF-α % Inhibition Mouse ([2]; 10 mg/kg) | inhibition in vivo at 25 mg/kg ([2]; 25 mg/kg) | TNF-α % Inhibition Mouse ([2]; 25 mg/kg)
1 | O=[N+]([O-])c1ccc(-n2cc(-c3ccncc3)c(-c3ccc(F)c(F)c3)c2)cc1 [compound 3] | – | 2 nM | – | 80% | 81% | – | –
2 | N#Cc1ccc(-n2cc(-c3ccncc3)c(-c3ccc(F)c(F)c3)c2)cc1 [compound 4] | 21% | 2 nM | – | – | – | – | –
3 | COc1cccc(-c2cn(-c3ccc(S(C)(=O)=O)cc3)cc2-c2ccncc2)c1 [compound 19] | – | 30 nM | – | – | – | – | −127%
4 | Cn1cc(-c2ccncc2)c(-c2ccc(F)c(F)c2)c1 [compound 2] | – | 30 nM | – | 15% | – | – | –
5 | O=[N+]([O-])c1ccc(-n2cc(-c3ccncc3)c(-c3ccc(F)cc3)c2)cc1 [compound 30] | – | 2 nM | – | 70% | – | – | 53%
6 | COc1cccc(-c2cn(-c3ccc(C#N)cc3)cc2-c2ccncc2)c1 [compound 18] | – | 15 nM | – | 23% | 24% | – | 60%
7 | COc1cccc(-c2cn(C)cc2-c2ccncc2)c1 [compound 14] | – | 55 nM | – | 43% | 41% | – | 71%

Further lines, with some results ahead:

Row | inhibition at 10 µM [1] | IC50 (TNF-α production) | Compound | inhibition in vivo at 10 mg/kg ([2]; 10 mg/kg) | % p38 inhib @ 10 μM [1] | TNF-α % Inhibition Mouse ([2]; 10 mg/kg) | inhibition in vivo at 25 mg/kg ([2]; 25 mg/kg) | TNF-α % Inhibition Mouse ([2]; 25 mg/kg)
8 | 67% | 15 nM | O=[N+]([O-])c1ccc(-n2cc(-c3ccc(F)cc3)c(-c3ccncc3)c2CCCc2ccccc2)cc1 [compound 31, 4-(4-Fluorophenyl)-1-(4-nitrophenyl)-2-(3-phenylpropyl)-3-(4-pyridyl)pyrrole] | 47% | – | – | – | –
9 | 51% | 8 nM | Nc1ccc(-n2cc(-c3ccc(F)cc3)c(-c3ccncc3)c2CCCc2ccccc2)cc1 [compound 33, 1-(4-Aminophenyl)-4-(4-fluorophenyl)-2-(3-phenylpropyl)-3-(4-pyridyl)pyrrole] | – | – | – | – | –
10 | 38% | 5 nM | CC(=O)Nc1ccc(-n2cc(-c3ccc(F)cc3)c(-c3ccncc3)c2CCCc2ccccc2)cc1 [compound 32, 1-(4-Acetoaminophenyl)-4-(4-fluorophenyl)-2-(3-phenylpropyl)-3-(4-pyridyl)pyrrole] | 48% | – | – | – | –
11 | 49% | 3.5 nM | Fc1ccc(-c2c[nH]c(CCCc3ccccc3)c2-c2ccncc2)cc1 [compound 28, 4-(4-Fluorophenyl)-2-(3-phenylpropyl)-3-(4-pyridyl)pyrrole] | 10% | – | – | 10% | –
12 | – | 5 nM | CN1CCCC1CCn1cc(-c2ccc(F)cc2)c(-c2ccncc2)c1CCCc1ccccc1 (stereo not shown) [compound 41] | 100% | – | – | 100% | –
13 | – | 2 nM | CN1CCCC(Cn2cc(-c3ccc(F)cc3)c(-c3ccncc3)c2CCCc2ccccc2)C1 (stereo not shown) [compound 42] | 100% | – | – | 100% | –
14 | 34% | 200 nM | Cn1cc(-c2ccncc2)c(-c2ccc(F)cc2)c1 [compound 29, 1-Methyl-3-(4-fluorophenyl)-4-(4-pyridyl)pyrrole] | – | – | – | – | –
15 | – | 5 nM | Fc1ccc(-c2cn(CCCN3CCCCC3)c(CCCc3ccccc3)c2-c2ccncc2)cc1 [compound 39] | 36% | – | – | 100% | –
16 | – | 100 nM | Cn1cc(-c2ccncc2)c(-c2cccc([N+](=O)[O-])c2)c1 [compound 11] | 74% | – | – | 94% | –
